Measured values reported in the supplement of paper PMC6288085.
± gives the standard deviation of the averaged measurements.

Assays:
Caenorhabditis elegans = test: food intake (delta OD600 day1-day4, bacterial clearance) (OD600 units); higher = more food eaten; details: 72 h
Method: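 C. elegans N2 or ser-5(vq1) knockout adults in 96-well plates treated with olanzapine, quetiapine, ziprasidone or serotonin over a dose range. Food intake was measured as bacterial clearance, delta OD600 from day 1 to day 4 per well (14-21 replicate wells of 5-15 animals).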

[1] = test system: Caenorhabditis elegans N2; test: as above; details: genotype: wt, 72 h

Compound `Cc1cc2c(s1)Nc1ccccc1N=C2N1CCN(C)CC1` [Olanzapine] has a food intake (Caenorhabditis elegans; 0.5 µM, genotype: ser-5(vq1)) of 0.0069 ± 0.0017, a food intake (Caenorhabditis elegans; 0.5 µM, genotype: wt) of 0.00731 ± 0.0022 and a food intake (Caenorhabditis elegans; 5 µM, genotype: ser-5(vq1)) of 0.00729 ± 0.0017. The food intake (Caenorhabditis elegans; 5 µM, genotype: wt) was 0.00919 ± 0.0018, the food intake (Caenorhabditis elegans; 20 µM, genotype: ser-5(vq1)) was 0.0081 ± 0.0016 and the food intake (Caenorhabditis elegans; 20 µM, genotype: wt) was 0.0102 ± 0.0017. It also gave a food intake (Caenorhabditis elegans; 50 µM, genotype: ser-5(vq1)) of 0.00845 ± 0.0018, a food intake (Caenorhabditis elegans; 50 µM, genotype: wt) of 0.0117 ± 0.0018 and a food intake (Caenorhabditis elegans; 100 µM, genotype: ser-5(vq1)) of 0.00859 ± 0.0022. For the same compound, the food intake (Caenorhabditis elegans; 100 µM, genotype: wt) was 0.0138 ± 0.0019, the food intake (Caenorhabditis elegans; 200 µM, genotype: ser-5(vq1)) was 0.00839 ± 0.0019 and the food intake (Caenorhabditis elegans; 200 µM, genotype: wt) was 0.0148 ± 0.0024. The food intake ([1]; 0.05 µM) was 0.0155 ± 0.0028, the food intake ([1]; 0.5 µM) was 0.0153 ± 0.0013 and the food intake ([1]; 5 µM) was 0.0152 ± 0.0038. It also gave a food intake ([1]; 10 µM) of 0.0159 ± 0.0025, a food intake ([1]; 20 µM) of 0.015 ± 0.0017 and a food intake ([1]; 50 µM) of 0.0149 ± 0.0025. The food intake ([1]; 100 µM) was 0.0184 ± 0.0027 and the food intake ([1]; 200 µM) was 0.0186 ± 0.0027.

Compound `CN1CCN(C2=Nc3ccccc3Oc3ccc(Cl)cc32)CC1` [Loxapine] has a food intake ([1]; 0.05 µM) of 0.0139 ± 0.0032, a food intake ([1]; 0.5 µM) of 0.0143 ± 0.003 and a food intake ([1]; 5 µM) of 0.0196 ± 0.0047. The food intake ([1]; 10 µM) was 0.0212 ± 0.0027, the food intake ([1]; 20 µM) was 0.0217 ± 0.002 and the food intake ([1]; 50 µM) was 0.0234 ± 0.0019. For the same compound, the food intake ([1]; 100 µM) was 0.023 ± 0.0034 and the food intake ([1]; 200 µM) was 0.0195 ± 0.0029.

`NCCc1c[nH]c2ccc(O)cc12` [Serotonin] showed a food intake (Caenorhabditis elegans; 100 µM, genotype: ser-5(vq1)) of 0.00664 ± 0.0014, a food intake (Caenorhabditis elegans; 100 µM, genotype: wt) of 0.00773 ± 0.0016 and a food intake (Caenorhabditis elegans; 500 µM, genotype: ser-5(vq1)) of 0.00869 ± 0.0018. For the same compound, the food intake (Caenorhabditis elegans; 500 µM, genotype: wt) was 0.00951 ± 0.0034, the food intake (Caenorhabditis elegans; 1000 µM, genotype: ser-5(vq1)) was 0.0118 ± 0.0024 and the food intake (Caenorhabditis elegans; 1000 µM, genotype: wt) was 0.0142 ± 0.0025. It also gave a food intake (Caenorhabditis elegans; 2000 µM, genotype: ser-5(vq1)) of 0.0155 ± 0.0025, a food intake (Caenorhabditis elegans; 2000 µM, genotype: wt) of 0.0176 ± 0.0028 and a food intake (Caenorhabditis elegans; 5000 µM, genotype: ser-5(vq1)) of 0.0182 ± 0.0025. It also gave a food intake (Caenorhabditis elegans; 5000 µM, genotype: wt) of 0.0199 ± 0.0031, a food intake (Caenorhabditis elegans; 10000 µM, genotype: ser-5(vq1)) of 0.0182 ± 0.003 and a food intake (Caenorhabditis elegans; 10000 µM, genotype: wt) of 0.0189 ± 0.0036.

In the case of `CN(C)CCCN1c2ccccc2Sc2ccc(Cl)cc21` [Chlorpromazine], the food intake ([1]; 0.05 µM) is reported as 0.0145 ± 0.0024, the food intake ([1]; 0.1 µM) is reported as 0.0149 ± 0.003 and the food intake ([1]; 0.2 µM) is reported as 0.0171 ± 0.0044. The food intake ([1]; 0.5 µM) was 0.0191 ± 0.0025, the food intake ([1]; 0.75 µM) was 0.0204 ± 0.0038 and the food intake ([1]; 1 µM) was 0.0201 ± 0.0033. For the same compound, the food intake ([1]; 2 µM) was 0.0233 ± 0.0053 and the food intake ([1]; 5 µM) was 0.0214 ± 0.0034.

Work on `CN1CC2c3ccccc3Oc3ccc(Cl)cc3C2C1` (stereo not drawn) [Asenapine] yielded a food intake ([1]; 0.01 µM) of 0.00861 ± 0.0014, a food intake ([1]; 0.03 µM) of 0.0107 ± 0.002 and a food intake ([1]; 0.1 µM) of 0.0122 ± 0.0018. The food intake ([1]; 0.3 µM) was 0.0127 ± 0.0016, the food intake ([1]; 1 µM) was 0.0127 ± 0.0018 and the food intake ([1]; 3 µM) was 0.0112 ± 0.0017.

Compound `O=C1Cc2cc(CCN3CCN(c4nsc5ccccc45)CC3)c(Cl)cc2N1` [Ziprasidone] has a food intake (Caenorhabditis elegans; 0.01 µM, genotype: ser-5(vq1)) of 0.00508 ± 0.0018, a food intake (Caenorhabditis elegans; 0.01 µM, genotype: wt) of 0.00821 ± 0.0024 and a food intake (Caenorhabditis elegans; 0.03 µM, genotype: ser-5(vq1)) of 0.00569 ± 0.0015. For the same compound, the food intake (Caenorhabditis elegans; 0.03 µM, genotype: wt) was 0.00974 ± 0.0022, the food intake (Caenorhabditis elegans; 0.1 µM, genotype: ser-5(vq1)) was 0.00662 ± 0.0014 and the food intake (Caenorhabditis elegans; 0.1 µM, genotype: wt) was 0.0135 ± 0.0022. The food intake (Caenorhabditis elegans; 0.3 µM, genotype: ser-5(vq1)) was 0.00664 ± 0.0016, the food intake (Caenorhabditis elegans; 0.3 µM, genotype: wt) was 0.0153 ± 0.0027 and the food intake (Caenorhabditis elegans; 1 µM, genotype: ser-5(vq1)) was 0.00712 ± 0.0025. It also gave a food intake (Caenorhabditis elegans; 1 µM, genotype: wt) of 0.0145 ± 0.0029, a food intake (Caenorhabditis elegans; 3 µM, genotype: ser-5(vq1)) of 0.0061 ± 0.0015 and a food intake (Caenorhabditis elegans; 3 µM, genotype: wt) of 0.0145 ± 0.0032. It also gave a food intake ([1]; 0.01 µM) of 0.00881 ± 0.0015, a food intake ([1]; 0.03 µM) of 0.0107 ± 0.0022 and a food intake ([1]; 0.1 µM) of 0.0128 ± 0.0021. For the same compound, the food intake ([1]; 0.3 µM) was 0.0136 ± 0.0016, the food intake ([1]; 1 µM) was 0.0136 ± 0.0024 and the food intake ([1]; 3 µM) was 0.0138 ± 0.0019.

`OCCOCCN1CCN(C2=Nc3ccccc3Sc3ccccc32)CC1` [Quetiapine] was tested, and the food intake (Caenorhabditis elegans; 0.1 µM, genotype: ser-5(vq1)) was 0.00593 ± 0.0015, the food intake (Caenorhabditis elegans; 0.1 µM, genotype: wt) was 0.00754 ± 0.0018 and the food intake (Caenorhabditis elegans; 3 µM, genotype: ser-5(vq1)) was 0.00574 ± 0.0014. For the same compound, the food intake (Caenorhabditis elegans; 3 µM, genotype: wt) was 0.00775 ± 0.0022, the food intake (Caenorhabditis elegans; 10 µM, genotype: ser-5(vq1)) was 0.00662 ± 0.0017 and the food intake (Caenorhabditis elegans; 10 µM, genotype: wt) was 0.00993 ± 0.0021. It also gave a food intake (Caenorhabditis elegans; 30 µM, genotype: ser-5(vq1)) of 0.00674 ± 0.0016, a food intake (Caenorhabditis elegans; 30 µM, genotype: wt) of 0.0118 ± 0.0027 and a food intake (Caenorhabditis elegans; 100 µM, genotype: ser-5(vq1)) of 0.00602 ± 0.0015. For the same compound, the food intake (Caenorhabditis elegans; 100 µM, genotype: wt) was 0.0127 ± 0.0034, the food intake (Caenorhabditis elegans; 200 µM, genotype: ser-5(vq1)) was 0.0055 ± 0.0014 and the food intake (Caenorhabditis elegans; 200 µM, genotype: wt) was 0.0103 ± 0.0026. It also gave a food intake ([1]; 0.1 µM) of 0.00598 ± 0.0014, a food intake ([1]; 3 µM) of 0.00727 ± 0.0012 and a food intake ([1]; 10 µM) of 0.00847 ± 0.0015. It also gave a food intake ([1]; 30 µM) of 0.0103 ± 0.0018, a food intake ([1]; 100 µM) of 0.0115 ± 0.0024 and a food intake ([1]; 200 µM) of 0.0118 ± 0.0032.

With `CN(C)CC/C=C1/c2ccccc2Sc2ccc(Cl)cc21` [Chlorprothixene] the food intake ([1]; 0.4 µM) was 0.0203 ± 0.0033, the food intake ([1]; 2 µM) was 0.0255 ± 0.0055 and the food intake ([1]; 10 µM) was 0.0194 ± 0.0019.
